Experimental data taken from PubChem BioAssay AID212 (DTP/NCI, 2004).
Values joined by “and” are separate entries in the source; they are usually repeats but may differ in a detail not shown here. Equal entries are not always repeated. Records with an inconclusive call do not appear.

Tested on: BDF1 mice, colon carcinoma 38 sc, T/C %
Test: NCI In Vivo Anticancer Drug Screen. Data for tumor model Colon Carcinoma 38 (subcutaneous) in B6D2F1 (BDF1) mice
Conditions: endpoint: median tumor weight (est.), higher = larger tumour
In short: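 Mice with transplanted tumors are treated with compound or vehicle. Survival or tumor size is then measured in both groups. The ratio of treated to control gives the reported figure.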

[1] = dose: 12.5 mg/kg/injection, schedule: Q07DX002 (ip), vehicle: saline
[2] = dose: 25.0 mg/kg/injection, schedule: Q07DX002 (ip), vehicle: saline
[3] = dose: 50.0 mg/kg/injection, schedule: Q07DX002 (ip), vehicle: saline
[4] = dose: 100.0 mg/kg/injection, schedule: Q07DX002 (ip), vehicle: saline
[5] = dose: 200.0 mg/kg/injection, schedule: Q07DX002 (ip), vehicle: saline
[6] = dose: 400.0 mg/kg/injection, schedule: Q07DX002 (ip), vehicle: saline
[7] = dose: 100.0 mg/kg/injection, schedule: Q07DX002 (ip), vehicle: Klucel (hydroxypropylcellulose) (HPC)
[8] = dose: 200.0 mg/kg/injection, schedule: Q07DX002 (ip), vehicle: Klucel (hydroxypropylcellulose) (HPC)
[9] = dose: 50.0 mg/kg/injection, schedule: Q07DX002 (ip), vehicle: Klucel (hydroxypropylcellulose) (HPC)
[10] = dose: 12.5 mg/kg/injection, schedule: Q07DX002 (ip), vehicle: saline with Tween-80
[11] = dose: 25.0 mg/kg/injection, schedule: Q07DX002 (ip), vehicle: saline with Tween-80
[12] = dose: 200.0 mg/kg/injection, schedule: Q07DX003 (ip), vehicle: Klucel (hydroxypropylcellulose) (HPC)
[13] = dose: 25.0 mg/kg/injection, schedule: Q07DX002 (ip), vehicle: Klucel (hydroxypropylcellulose) (HPC)

SMILES: Cn1cnc([N+](=O)[O-])c1SCC(=O)O
- T/C [1]: 65 % of control
- T/C [2]: 62 % of control
- T/C [3]: 67 % of control
- T/C [4]: 99 % of control
- T/C (dose: 112.5 mg/kg/injection, schedule: Q07DX002 (ip), vehicle: saline): 111 % of control
- T/C [5]: 94 % of control
- T/C (dose: 225.0 mg/kg/injection, schedule: Q07DX002 (ip), vehicle: saline): 85 % of control
- T/C [6]: 100 % of control
- T/C (dose: 450.0 mg/kg/injection, schedule: Q07DX002 (ip), vehicle: saline): 163 % of control
- T/C (dose: 900.0 mg/kg/injection, schedule: Q07DX002 (ip), vehicle: saline): 59 % of control
- T/C (dose: 1800.0 mg/kg/injection, schedule: Q07DX002 (ip), vehicle: saline): 101 % of control

SMILES: CN(CCN(C)C(=O)CCOS(C)(=O)=O)C(=O)CCOS(C)(=O)=O
- T/C [3]: 75 % of control and 94 % of control
- T/C [4]: 48 % of control and 63 % of control
- T/C [5]: 25 % of control and 43 % of control

SMILES: CC(C)(O)/C=C/C(=O)[C@](C)(O)[C@H]1[C@H](O)C[C@@]2(C)[C@@H]3CC=C4[C@@H](C[C@H](O)C(=O)C4(C)C)[C@]3(C)C(=O)C[C@]12C
- T/C (dose: 0.25 mg/kg/injection, schedule: Q07DX002 (ip), vehicle: saline + Tween-80 + alcohol): 95 % of control
- T/C (dose: 0.5 mg/kg/injection, schedule: Q07DX002 (ip), vehicle: saline + Tween-80 + alcohol): 106 % of control
- T/C (dose: 1.0 mg/kg/injection, schedule: Q07DX002 (ip), vehicle: saline + Tween-80 + alcohol): 65 % of control

SMILES: Cc1ccc2c(ccc(CC(=S)[S-])[n+]2C)c1
- T/C [7]: 111 % of control and 93 % of control
- T/C [8]: 122 % of control

SMILES: COC1=CC(=O)N(C(=O)C2CSC(C(CO)NC(=O)c3csc(/C=N/O)n3)=N2)C1 (stereo not given)
- T/C [9]: 114 % of control
- T/C [7]: 110 % of control
- T/C [8]: 150 % of control
- T/C (dose: 400.0 mg/kg/injection, schedule: Q07DX002 (ip), vehicle: Klucel (hydroxypropylcellulose) (HPC)): 88 % of control

SMILES: CCN(CC)C(C)(C)C(=O)/C=C/c1ccccc1
- T/C (dose: 31.25 mg/kg/injection, schedule: Q07DX002 (ip), vehicle: saline with Tween-80): 68 % of control
- T/C (dose: 62.5 mg/kg/injection, schedule: Q07DX002 (ip), vehicle: saline with Tween-80): 39 % of control
- T/C (dose: 125.0 mg/kg/injection, schedule: Q07DX002 (ip), vehicle: saline with Tween-80): 78 % of control
- T/C (dose: 250.0 mg/kg/injection, schedule: Q07DX002 (ip), vehicle: saline with Tween-80): 34 % of control

SMILES: C[CH2][Sn]1([CH2]C)[O]OC(c2ccccc2)[O]1 (stereo not given)
- T/C (dose: 1.56 mg/kg/injection, schedule: Q07DX002 (ip), vehicle: saline with Tween-80): 121 % of control
- T/C (dose: 6.25 mg/kg/injection, schedule: Q07DX002 (ip), vehicle: saline with Tween-80): 237 % of control
- T/C [10]: 195 % of control
- T/C [11]: 84 % of control

SMILES: CCCCC(C)(C(=O)OCC)C(=O)OCC
- T/C (dose: 25.0 mg/kg/injection, schedule: Q07DX003 (ip), vehicle: Klucel (hydroxypropylcellulose) (HPC)): 68 % of control and 69 % of control
- T/C [12]: 63 % of control and 85 % of control
- T/C (dose: 400.0 mg/kg/injection, schedule: Q07DX003 (ip), vehicle: Klucel (hydroxypropylcellulose) (HPC)): 91 % of control and 102 % of control

SMILES: O=C1N(Cl)C(=O)C(c2ccc(Cl)cc2)(c2ccc(Cl)cc2)N1Cl
- T/C [11]: 87 % of control and 90 % of control and 100 % of control

SMILES: C/C=C(\C)C(=O)OC1C(C)=C2C(C1OC(=O)CCCC)C(C)(OC(C)=O)CC(OC(=O)CCCC)C1(O)C2OC(=O)C1(C)O (stereo not given)
- T/C (dose: 1.68 mg/kg/injection, schedule: Q07DX002 (ip), vehicle: Klucel (hydroxypropylcellulose) (HPC)): 54 % of control
- T/C (dose: 3.37 mg/kg/injection, schedule: Q07DX002 (ip), vehicle: Klucel (hydroxypropylcellulose) (HPC)): 87 % of control
- T/C (dose: 6.75 mg/kg/injection, schedule: Q07DX002 (ip), vehicle: Klucel (hydroxypropylcellulose) (HPC)): 61 % of control
- T/C (dose: 13.5 mg/kg/injection, schedule: Q07DX002 (ip), vehicle: Klucel (hydroxypropylcellulose) (HPC)): 105 % of control

SMILES: CC1=C[S+](c2ccccc2)c2cccc3cc4ccccc4c1c23 (stereo not given)
- T/C (dose: 0.5 mg/kg/injection, schedule: Q07DX002 (ip), vehicle: saline with Tween-80): 109 % of control
- T/C (dose: 1.0 mg/kg/injection, schedule: Q07DX002 (ip), vehicle: saline with Tween-80): 162 % of control
- T/C (dose: 2.0 mg/kg/injection, schedule: Q07DX002 (ip), vehicle: saline with Tween-80): 151 % of control
- T/C (dose: 4.0 mg/kg/injection, schedule: Q07DX002 (ip), vehicle: saline with Tween-80): 114 % of control

SMILES: CC(=O)NC(CCc1ccc(Cl)c(Cl)c1)c1cccc(O)c(=O)c1 (stereo not given)
- T/C [13]: 161 % of control
- T/C [7]: 109 % of control
- T/C [8]: 122 % of control

SMILES: COc1nc(=O)n(C2C=CC(=O)O2)cc1F (stereo not given)
- T/C [1]: 117 % of control
- T/C [2]: 113 % of control
- T/C [3]: 109 % of control

SMILES: CNc1nc(NC)nc(NC)n1
- T/C (dose: 12.5 mg/kg/injection, schedule: Q07DX003 (ip), vehicle: Klucel (hydroxypropylcellulose) (HPC)): 105 % of control
- T/C (dose: 50.0 mg/kg/injection, schedule: Q07DX003 (ip), vehicle: Klucel (hydroxypropylcellulose) (HPC)): 111 % of control
- T/C (dose: 100.0 mg/kg/injection, schedule: Q07DX003 (ip), vehicle: Klucel (hydroxypropylcellulose) (HPC)): 109 % of control
- T/C [12]: 86 % of control

SMILES: CN1C(=O)C(=Cc2ccc(O)cc2)C(=O)N(C)C1=O
- T/C [10]: 105 % of control
- T/C [11]: 53 % of control

SMILES: Cc1cc(=NO)cc(C)n1O
- T/C (dose: 50.0 mg/kg/injection, schedule: Q07DX002 (ip), vehicle: distilled water + alcohol): 80 % of control
- T/C (dose: 100.0 mg/kg/injection, schedule: Q07DX002 (ip), vehicle: distilled water + alcohol): 80 % of control
- T/C (dose: 200.0 mg/kg/injection, schedule: Q07DX002 (ip), vehicle: distilled water + alcohol): 98 % of control
- T/C (dose: 400.0 mg/kg/injection, schedule: Q07DX002 (ip), vehicle: distilled water + alcohol): 106 % of control
- T/C (dose: 800.0 mg/kg/injection, schedule: Q07DX002 (ip), vehicle: distilled water + alcohol): 86 % of control

SMILES: Nc1ccn(C2OC(CO)C(O)C2O)c(=O)n1 (stereo not given)
- T/C [4]: 69 % of control
- T/C (dose: 150.0 mg/kg/injection, schedule: Q07DX002 (ip), vehicle: saline): 74 % of control
- T/C [6]: 75 % of control and 95 % of control
- T/C (dose: 600.0 mg/kg/injection, schedule: Q07DX002 (ip), vehicle: saline): 29 % of control and 43 % of control
- T/C (dose: 800.0 mg/kg/injection, schedule: Q07DX002 (ip), vehicle: saline): 35 % of control
- T/C (dose: 1200.0 mg/kg/injection, schedule: Q07DX002 (ip), vehicle: saline): 44 % of control and 55 % of control

SMILES: O=NN(CCCl)C(=O)Oc1ccc(OC(=O)N(CCCl)N=O)cc1
- T/C (dose: 6.25 mg/kg/injection, schedule: Q07DX002 (ip), vehicle: Klucel (hydroxypropylcellulose) (HPC)): 75 % of control
- T/C (dose: 12.5 mg/kg/injection, schedule: Q07DX002 (ip), vehicle: Klucel (hydroxypropylcellulose) (HPC)): 72 % of control
- T/C [13]: 85 % of control
- T/C [9]: 54 % of control

SMILES: C1CN2CCC1CC2
- T/C (dose: 3.12 mg/kg/injection, schedule: Q07DX003 (ip), vehicle: saline): 101 % of control
- T/C (dose: 6.25 mg/kg/injection, schedule: Q07DX003 (ip), vehicle: saline): 78 % of control

SMILES: COc1cc2cc[n+](C)c(Cc3ccccc3)c2cc1OC
- T/C (dose: 12.5 mg/kg/injection, schedule: Q07DX003 (ip), vehicle: saline): 113 % of control
- T/C (dose: 25.0 mg/kg/injection, schedule: Q07DX003 (ip), vehicle: saline): 84 % of control
- T/C (dose: 50.0 mg/kg/injection, schedule: Q07DX003 (ip), vehicle: saline): 80 % of control
